Test results from ChEMBL document CHEMBL6074668 (J Med Chem, 2024).
Activity calls are given as the source filed them. No cut-off for these calls is given here.

Tests used:
Assay type in all cases: functional, cell-based
[1] = target: T1, Kappa-type opioid receptor (Homo sapiens, UniProt P41145); experiment: Agonist activity at human kappa opioid receptor expressed in CHO-K1 cells assessed as inhibition of forskolin-stimulated cAMP accumulation by HitHunter assay based luminescence analysis relative to control
Mu-type opioid receptor [2] = target: T2, Mu-type opioid receptor (Homo sapiens, UniProt P35372); experiment: Agonist activity at human mu opioid receptor expressed in CHO-K1 cells assessed as inhibition of forskolin-stimulated cAMP accumulation at 10 uM by HitHunter assay based luminescence analysis
[3] = target: T1, Kappa-type opioid receptor; experiment: Agonist activity at human kappa opioid receptor expressed in CHO-K1 cells assessed as inhibition of forskolin-stimulated cAMP accumulation at 10 uM by HitHunter assay based luminescence analysis
Mu-type opioid receptor [4] = target: T2, Mu-type opioid receptor; experiment: Agonist activity at human mu opioid receptor expressed in CHO-K1 cells assessed as inhibition of forskolin-stimulated cAMP accumulation by HitHunter assay based luminescence analysis relative to control
[5] = target: Delta-type opioid receptor (Homo sapiens) (UniProt P41143); experiment: Agonist activity at human delta opioid receptor expressed in CHO-K1 cells assessed as inhibition of forskolin-stimulated cAMP accumulation at <1 uM by HitHunter assay based luminescence analysis
[6] = target: T1, Kappa-type opioid receptor; experiment: Agonist activity at human kappa opioid receptor expressed in CHO-K1 cells assessed as inhibition of forskolin-stimulated cAMP accumulation by HitHunter assay based luminescence analysis

T1 sequence (P41145 whole entry): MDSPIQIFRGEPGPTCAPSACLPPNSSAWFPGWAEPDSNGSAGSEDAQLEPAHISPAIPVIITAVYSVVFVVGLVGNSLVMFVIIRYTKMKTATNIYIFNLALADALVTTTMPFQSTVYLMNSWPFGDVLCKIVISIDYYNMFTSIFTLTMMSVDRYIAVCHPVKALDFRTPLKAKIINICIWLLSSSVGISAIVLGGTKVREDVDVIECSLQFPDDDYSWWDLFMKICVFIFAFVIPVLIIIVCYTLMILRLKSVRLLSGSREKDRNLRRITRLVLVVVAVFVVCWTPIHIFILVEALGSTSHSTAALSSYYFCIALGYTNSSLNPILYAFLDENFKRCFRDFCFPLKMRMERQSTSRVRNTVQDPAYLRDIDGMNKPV
T2 sequence (P35372 whole entry): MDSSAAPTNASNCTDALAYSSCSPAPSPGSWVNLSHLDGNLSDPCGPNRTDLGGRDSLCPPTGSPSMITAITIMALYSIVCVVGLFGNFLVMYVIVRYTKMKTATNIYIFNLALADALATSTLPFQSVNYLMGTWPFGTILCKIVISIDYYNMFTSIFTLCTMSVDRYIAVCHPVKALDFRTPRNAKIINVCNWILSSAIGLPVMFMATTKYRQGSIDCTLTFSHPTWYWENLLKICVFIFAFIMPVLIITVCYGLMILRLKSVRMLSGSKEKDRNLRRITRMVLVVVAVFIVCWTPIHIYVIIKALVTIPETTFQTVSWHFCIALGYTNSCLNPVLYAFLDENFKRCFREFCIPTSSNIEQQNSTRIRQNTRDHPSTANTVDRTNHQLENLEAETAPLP
Delta-type opioid receptor (Homo sapiens), sequence (P41143 whole entry): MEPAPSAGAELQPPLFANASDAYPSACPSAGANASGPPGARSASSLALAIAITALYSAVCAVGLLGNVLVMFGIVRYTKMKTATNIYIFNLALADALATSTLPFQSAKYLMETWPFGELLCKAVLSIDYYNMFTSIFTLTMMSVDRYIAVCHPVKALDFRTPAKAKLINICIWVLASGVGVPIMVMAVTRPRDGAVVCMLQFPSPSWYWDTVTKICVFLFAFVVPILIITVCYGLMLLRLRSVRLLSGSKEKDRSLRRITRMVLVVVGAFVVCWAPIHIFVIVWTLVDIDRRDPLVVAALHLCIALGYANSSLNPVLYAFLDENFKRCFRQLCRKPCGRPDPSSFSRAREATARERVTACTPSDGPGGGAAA

## C/C=C1/C[N+]2(CCC)CC[C@]34C(=C(C(=O)OC)[C@H]1C[C@@H]32)Nc1ccccc14 (some centres not stated)
[1]
  Emax: < 10%
Mu-type opioid receptor [2]
  Activity: inactive
[3]
  Activity: inactive
Mu-type opioid receptor [4]
  Emax: < 10%

## C/C=C1/CN2CC[C@]34C(=C(C(=O)OC)[C@H]1C[C@H]23)Nc1ccc(-c2ccsc2)cc14
[1]; filed as agonist
  Emax: 104%
[5]
  Activity: inactive
Mu-type opioid receptor [4]; filed as agonist
  Emax: 107%

## COC(=O)C1=C2Nc3ccccc3[C@@]23CCN2C[C@@](O)([C@@H](C)O)[C@@H]1C[C@H]23
[1]
  Emax: < 10%
Mu-type opioid receptor [2]
  Activity: inactive
[3]
  Activity: inactive
Mu-type opioid receptor [4]
  Emax: < 10%

## C/C=C1/C[N+]2(CC3CC3)CC[C@]34C(=C(C(=O)OC)[C@H]1C[C@@H]32)Nc1ccc(Br)cc14 (some centres not stated)
[1]; filed as agonist
  Emax: 94%
Mu-type opioid receptor [2]
  Activity: inactive
Mu-type opioid receptor [4]
  Emax: < 10%

## COC(=O)C1=C2Nc3ccccc3[C@@]23CCN2C[C@@](O)(C(C)=O)[C@@H]1C[C@H]23
[1]
  Emax: < 10%
Mu-type opioid receptor [2]
  Activity: inactive
[3]
  Activity: inactive
Mu-type opioid receptor [4]
  Emax: < 10%

## C=CC[N+]12CC[C@]34C(=C(C(=O)OC)[C@@H](C[C@@H]31)/C(=C\C)C2)Nc1ccccc14 (some centres not stated)
[1]
  Emax: < 10%
Mu-type opioid receptor [2]
  Activity: inactive
[3]
  Activity: inactive
Mu-type opioid receptor [4]
  Emax: < 10%

## C/C=C1/CN2CC[C@]34C(=C(C(=O)OC)[C@H]1C[C@H]23)Nc1ccc(C#N)cc14
[1]; filed as agonist
  Emax: 102%
[5]
  Activity: inactive
[6]
  EC50: 0.081 µM
Mu-type opioid receptor [2]
  Activity: inactive
Mu-type opioid receptor [4]
  Emax: < 10%

## C/C=C1/CN2CC[C@]34c5cc(Br)ccc5NC3C(C(=O)OC)[C@H]1C[C@H]24 (some centres not stated)
[1]; filed as agonist
  Emax: 100%

## C/C=C1/C[N+]2(C)CC[C@]34C(=C(C(=O)OC)[C@H]1C[C@@H]32)Nc1ccc(Br)cc14 (some centres not stated)
[1]; filed as agonist
  Emax: 102%
[6]
  EC50: 0.94 µM
Mu-type opioid receptor [2]
  Activity: inactive
Mu-type opioid receptor [4]
  Emax: < 10%

## COC(=O)C1=C2Nc3ccc(Br)cc3[C@@]23CCN2C[C@@](O)([C@@H](C)O)[C@@H]1C[C@H]23
[1]
  Emax: < 10%
Mu-type opioid receptor [2]
  Activity: inactive
[3]
  Activity: inactive
Mu-type opioid receptor [4]
  Emax: < 10%

## C/C=C1/C[N+]2(Cc3ccccc3)CC[C@]34C(=C(C(=O)OC)[C@H]1C[C@@H]32)Nc1ccccc14 (some centres not stated)
[1]
  Emax: < 10%
[3]
  Activity: inactive
Mu-type opioid receptor [4]; filed as agonist
  Emax: 112%

## C/C=C1/CN2CC[C@]34c5cc(I)ccc5NC3C(C(=O)OC)[C@H]1C[C@H]24 (some centres not stated)
[1]; filed as agonist
  Emax: 100%
[5]
  Activity: inactive
[6]
  EC50: 0.024 µM
Mu-type opioid receptor [2]
  Activity: inactive
Mu-type opioid receptor [4]
  Emax: < 10%

## CC[C@@H]1CN2CC[C@]34C(=C(C(=O)OC)[C@H]1C[C@H]23)Nc1ccccc14
[1]; filed as agonist
  Emax: 99%
[6]
  EC50: 1.6 µM
Mu-type opioid receptor [2]
  Activity: inactive
Mu-type opioid receptor [4]
  Emax: < 10%

## C/C=C1/CN2CC[C@]34C(=C(C(=O)OC)[C@H]1C[C@H]23)Nc1ccc(-c2ccccc2)cc14
[1]; filed as agonist
  Emax: 101%
[5]
  Activity: inactive
Mu-type opioid receptor [4]; filed as agonist
  Emax: 106%

## C/C=C1/C[N+]2(C)CC[C@]34C(=C(C(=O)OC)[C@H]1C[C@@H]32)Nc1ccccc14 (some centres not stated)
[1]
  Emax: < 10%
Mu-type opioid receptor [2]
  Activity: inactive
[3]
  Activity: inactive
Mu-type opioid receptor [4]
  Emax: < 10%

## C=CC[N+]12CC[C@]34C(=C(C(=O)OC)[C@@H](C[C@@H]31)/C(=C\C)C2)Nc1ccc(Br)cc14 (some centres not stated)
[1]; filed as agonist
  Emax: 100%
[6]
  EC50: 0.65 µM
Mu-type opioid receptor [2]
  Activity: inactive
Mu-type opioid receptor [4]
  Emax: < 10%

## CC[C@@H]1CN2CC[C@]34c5ccccc5N[C@@H]3[C@H](C(=O)OC)[C@H]1C[C@H]24
[1]
  Emax: < 10%
Mu-type opioid receptor [2]
  Activity: inactive
[3]
  Activity: inactive
Mu-type opioid receptor [4]
  Emax: < 10%

## C/C=C1/C[N+]2(CC3CC3)CC[C@]34C(=C(C(=O)OC)[C@H]1C[C@@H]32)Nc1ccccc14 (some centres not stated)
[1]; filed as agonist
  Emax: 113%
[6]
  EC50: 4.7 µM
Mu-type opioid receptor [2]
  Activity: inactive
Mu-type opioid receptor [4]
  Emax: < 10%

## C[C@@H](NC(=O)[C@@H](N)Cc1ccc(O)cc1)C(=O)NCC(=O)N(C)[C@@H](Cc1ccccc1)C(=O)NCCO
[3]
  Activity: inactive

## C/C=C1/CN2CC[C@]34c5ccccc5N[C@@H]3[C@H](C(=O)OC)[C@H]1C[C@H]24
[1]
  Emax: < 10%
Mu-type opioid receptor [2]
  Activity: inactive
[3]
  Activity: inactive
Mu-type opioid receptor [4]
  Emax: < 10%
